Counter-ions that a name gives are not always drawn. Like-named read-outs stand apart in the source and are kept apart here.
Legend:
[1] = system: HI650 (Lung Adenocarcinoma); assay: Cell viability analysis, lung cancer HI650; assay type: cell-based, human; details: Homo sapiens
[2] = system: A549 (Lung Adenocarcinoma); assay: Cell viability analysis, lung cancer A549; assay type: cell-based, human; details: Homo sapiens
[3] = system: AGS (Gastric Adenocarcinoma); assay: Cell viability analysis, gastric cancer AGS; assay type: cell-based, human; details: Homo sapiens
[4] = system: MKN-45 (Gastric Adenocarcinoma); assay: Cell viability analysis, gastric cancer MKN-45; assay type: cell-based, human; details: Homo sapiens
[5] = system: HepG2 (Hepatocellular Carcinoma); assay: Cell viability analysis, hepatic cancer HepG2; assay type: cell-based, human; details: Homo sapiens
[6] = system: LoVo (Colorectal Adenocarcinoma); assay: Cell viability analysis, colon cancer LoVo; assay type: cell-based, human; details: Homo sapiens, LoVo
[7] = system: A375 (Amelanotic Melanoma); assay: Cell viability analysis, skin cancer A375; assay type: cell-based, human; details: Homo sapiens
[8] = system: HeLa (Cervix Adenocarcinoma); assay: Cell viability analysis, cervical cancer HeLa; assay type: cell-based, human; details: Homo sapiens, HeLa
[9] = system: PC3 (p53−) (Prostate Adenocarcinoma); assay: Cell viability analysis, prostate cancer PC3; assay type: cell-based, human; details: Homo sapiens
[10] = system: TSGH-8301 (Urinary Bladder Carcinoma); assay: Cell viability analysis, bladder cancer TSGH-8301; assay type: cell-based, human; details: Homo sapiens
[11] = system: MCF7 (Mammary Gland, Adenocarcinoma); assay: Cell viability analysis, breast cancer MCF7; assay type: cell-based, human; details: Homo sapiens
[12] = system: HL-60 (Acute Promyelocytic Leukemia); assay: Cell viability analysis, leukemia HL-60; assay type: cell-based, human; details: Homo sapiens
[13] = system: HCT116 (p53+) (Colorectal Carcinoma); assay: cells; details: Homo sapiens, HCT-116, 72 h, read-out: cell viability (survival rate), HCT116
[14] = NCI-H1650, 72 h, read-out: cell viability (survival rate), H1650, drug 10 μM, 72 hours, WST-1, OD450 nm
[15] = A549, 72 h, read-out: cell viability (survival rate), A549, drug 10 μM, 72 hours, WST-1, OD450 nm
[16] = 72 h, read-out: cell viability (survival rate), AGS, drug 10 μM, 72 hours, WST-1, OD450 nm
[17] = MKN-45, 72 h, read-out: cell viability (survival rate), MKN-45, drug 10 μM, 72 hours, WST-1, OD450 nm
[18] = HepG2, 72 h, read-out: cell viability (survival rate), HepG2, drug 10 μM, 72 hours, WST-1, OD450 nm
[19] = 72 h, read-out: cell viability (survival rate), LoVo, drug 10 μM, 72 hours, WST-1, OD450 nm
[20] = A-375, 72 h, read-out: cell viability (survival rate), A375, drug 10 μM, 72 hours, WST-1, OD450 nm
[21] = 72 h, read-out: cell viability (survival rate), HeLa, drug 10 μM, 72 hours, WST-1, OD450 nm
[22] = 72 h, read-out: cell viability (survival rate), PC3, drug 10 μM, 72 hours, WST-1, OD450 nm
[23] = 72 h, read-out: cell viability (survival rate), TSGH, drug 10 μM, 72 hours, WST-1, OD450 nm
[24] = MCF7, 72 h, read-out: cell viability (survival rate), MCF7, drug 10 μM, 72 hours, WST-1, OD450 nm
[25] = HL-60, 72 h, read-out: cell viability (survival rate), HL-60, drug 10 μM, 72 hours, WST-1, OD450 nm
[26] = NCI-H1650, 72 h, drug 10 μM, 72 hours, WST-1, OD450 nm, read-out: cell viability (survival rate), H1650
[27] = A549, 72 h, drug 10 μM, 72 hours, WST-1, OD450 nm, read-out: cell viability (survival rate), A549
[28] = 72 h, drug 10 μM, 72 hours, WST-1, OD450 nm, read-out: cell viability (survival rate), AGS
[29] = MKN-45, 72 h, drug 10 μM, 72 hours, WST-1, OD450 nm, read-out: cell viability (survival rate), MKN-45
[30] = HepG2, 72 h, drug 10 μM, 72 hours, WST-1, OD450 nm, read-out: cell viability (survival rate), HepG2
[31] = A-375, 72 h, drug 10 μM, 72 hours, WST-1, OD450 nm, read-out: cell viability (survival rate), A375
[32] = 72 h, drug 10 μM, 72 hours, WST-1, OD450 nm, read-out: cell viability (survival rate), HeLa
[33] = 72 h, drug 10 μM, 72 hours, WST-1, OD450 nm, read-out: cell viability (survival rate), PC3
[34] = 72 h, drug 10 μM, 72 hours, WST-1, OD450 nm, read-out: cell viability (survival rate), TSGH
[35] = MCF7, 72 h, drug 10 μM, 72 hours, WST-1, OD450 nm, read-out: cell viability (survival rate), MCF7
[36] = HL-60, 72 h, drug 10 μM, 72 hours, WST-1, OD450 nm, read-out: cell viability (survival rate), HL-60
[37] = NCI-H1650, drug 10 μM, 72 hours, WST-1, OD450 nm, read-out: cell viability (survival rate), H1650
[38] = A549, drug 10 μM, 72 hours, WST-1, OD450 nm, read-out: cell viability (survival rate), A549
[39] = drug 10 μM, 72 hours, WST-1, OD450 nm, read-out: cell viability (survival rate), AGS
[40] = MKN-45, drug 10 μM, 72 hours, WST-1, OD450 nm, read-out: cell viability (survival rate), MKN-45
[41] = HepG2, drug 10 μM, 72 hours, WST-1, OD450 nm, read-out: cell viability (survival rate), HepG2
[42] = drug 10 μM, 72 hours, WST-1, OD450 nm, read-out: cell viability (survival rate), LoVo
[43] = A-375, drug 10 μM, 72 hours, WST-1, OD450 nm, read-out: cell viability (survival rate), A375
[44] = drug 10 μM, 72 hours, WST-1, OD450 nm, read-out: cell viability (survival rate), HeLa
[45] = drug 10 μM, 72 hours, WST-1, OD450 nm, read-out: cell viability (survival rate), PC3
[46] = drug 10 μM, 72 hours, WST-1, OD450 nm, read-out: cell viability (survival rate), TSGH
[47] = MCF7, drug 10 μM, 72 hours, WST-1, OD450 nm, read-out: cell viability (survival rate), MCF7
[48] = HL-60, drug 10 μM, 72 hours, WST-1, OD450 nm, read-out: cell viability (survival rate), HL-60

Compound | viability at 10 µM [1, 14] | viability at 10 µM [2, 15] | viability at 10 µM [3, 16] | viability at 10 µM [4, 17] | viability at 10 µM [5, 18] | viability at 10 µM [6, 19] | viability at 10 µM [7, 20] | viability at 10 µM [8, 21] | viability at 10 µM [9, 22] | viability at 10 µM [10, 23] | viability at 10 µM [11, 24] | viability at 10 µM [12, 25] | viability at 10 µM [13] | viability at 10 µM [1, 26] | viability at 10 µM [2, 27] | viability at 10 µM [3, 28] | viability at 10 µM [4, 29] | viability at 10 µM [5, 30] | viability at 10 µM [7, 31] | viability at 10 µM [8, 32] | also measured
COc1cc(/C=C/C(=O)CC(=O)/C=C/c2ccc(O)c(OC)c2)ccc1O [Curcumin] | 74.7% | 105% | 72.2% | 46.4% | 98.3% | 80% | 104% | 66.2% | 77.9% | 95.4% | 61.8% | 111% | 93.6% | – | – | – | – | – | – | – | –
C[N+](C)(C)CCO.[Cl-] [Choline Chloride] | – | – | – | – | – | – | – | – | – | – | – | – | 104% | – | – | – | – | – | – | – | viability at 10 µM ([1]; NCI-H1650, 72 h, read-out: cell viability (survival rate), H1650): 90.2%; viability at 10 µM ([2]; A549, 72 h, read-out: cell viability (survival rate), A549): 96%; viability at 10 µM ([3]; 72 h, read-out: cell viability (survival rate), AGS): 97.1%; viability at 10 µM ([4]; MKN-45, 72 h, read-out: cell viability (survival rate), MKN-45): 99.3%; viability at 10 µM ([5]; HepG2, 72 h, read-out: cell viability (survival rate), HepG2): 103%; viability at 10 µM ([6]; 72 h, read-out: cell viability (survival rate), LoVo): 76.7%; viability at 10 µM ([7]; A-375, 72 h, read-out: cell viability (survival rate), A375): 132%; viability at 10 µM ([8]; 72 h, read-out: cell viability (survival rate), HeLa): 103%; viability at 10 µM ([9]; 72 h, read-out: cell viability (survival rate), PC3): 106%; viability at 10 µM ([10]; 72 h, read-out: cell viability (survival rate), TSGH): 129%; viability at 10 µM ([11]; MCF7, 72 h, read-out: cell viability (survival rate), MCF7): 108%; viability at 10 µM ([12]; HL-60, 72 h, read-out: cell viability (survival rate), HL-60): 91.1%
CN(C)[C@@H]1C(O)=C(C(=O)NCN2CCCC2)C(=O)[C@@]2(O)C(O)=C3C(=O)c4c(O)cccc4[C@@](C)(O)[C@H]3C[C@@H]12 [Rolitetracycline] | 113% | 112% | 61.1% | 95.7% | 71.2% | 86.1% | 82.5% | 53.9% | 105% | 54.3% | 88.8% | 102% | 67.7% | – | – | – | – | – | – | – | –
CCCCC(CC)CNC(=N)NC(=N)NCCCCCCNC(=N)NC(=N)NCC(CC)CCCC (stereo not shown) [Alexidine HCl] | – | – | – | – | – | 54.6% | – | – | – | – | – | – | 65.8% | 57.5% | 25.3% | 45.1% | 64.4% | 65.9% | 38.1% | 44.9% | viability at 10 µM [9, 33]: 38%; viability at 10 µM [10, 34]: 36.6%; viability at 10 µM [11, 35]: 34.8%; viability at 10 µM [12, 36]: 29.4%
OC[C@H]1O[C@H](O[C@]2(CCl)O[C@H](CCl)[C@@H](O)[C@@H]2O)[C@H](O)[C@@H](O)[C@H]1Cl [Sucralose] | – | – | – | – | – | 73.8% | – | – | – | – | – | – | 54.8% | 72% | 74.3% | 66.7% | 94.1% | 95.3% | 83.3% | 77.9% | viability at 10 µM [9, 33]: 78.8%; viability at 10 µM [10, 34]: 94.3%; viability at 10 µM [11, 35]: 71.2%; viability at 10 µM [12, 36]: 88.5%
O=C(O)c1ccccc1 [Benzoic acid] | – | – | – | – | – | – | – | – | – | – | – | – | 41.9% | – | – | – | – | – | – | – | viability at 10 µM [1, 37]: 57.2%; viability at 10 µM [2, 38]: 36.7%; viability at 10 µM [3, 39]: 53.1%; viability at 10 µM [4, 40]: 43.4%; viability at 10 µM [5, 41]: 79.1%; viability at 10 µM [6, 42]: 60.5%; viability at 10 µM [7, 43]: 37%; viability at 10 µM [8, 44]: 59.6%; viability at 10 µM [9, 45]: 36.8%; viability at 10 µM [10, 46]: 39.5%; viability at 10 µM [11, 47]: 31.4%; viability at 10 µM [12, 48]: 111%
NC(CO)(CO)CO [Trometamol] | 95.4% | 79.5% | 78.1% | 88.3% | 96.7% | 68% | 126% | 90.9% | 97% | 102% | 98.8% | 91.3% | 90.4% | – | – | – | – | – | – | – | –
CC(=O)Nc1ncc([N+](=O)[O-])s1 [Nithiamide] | – | – | – | – | – | 89.8% | – | – | – | – | – | – | 86.9% | 67.1% | 39.3% | 102% | 76.7% | 94.8% | 96.7% | 83% | viability at 10 µM [9, 33]: 74.5%; viability at 10 µM [10, 34]: 122%; viability at 10 µM [11, 35]: 65.5%; viability at 10 µM [12, 36]: 102%
CCC1(C)CC(=O)NC(=O)C1 [Bemegride] | – | – | – | – | – | – | – | – | – | – | – | – | 47.7% | – | – | – | – | – | – | – | viability at 10 µM [1, 37]: 69.9%; viability at 10 µM [2, 38]: 60.2%; viability at 10 µM [3, 39]: 62%; viability at 10 µM [4, 40]: 99.7%; viability at 10 µM [5, 41]: 90.7%; viability at 10 µM [6, 42]: 88.5%; viability at 10 µM [7, 43]: 62.7%; viability at 10 µM [8, 44]: 62.7%; viability at 10 µM [9, 45]: 113%; viability at 10 µM [10, 46]: 93.3%; viability at 10 µM [11, 47]: 123%; viability at 10 µM [12, 48]: 125%
Nc1c2ccccc2nc2ccccc12 [9-Aminoacridine] | 56.9% | 25.8% | 42.8% | 63.1% | 63.5% | 58.5% | 36.4% | 43.6% | 38.7% | 34.6% | 34.1% | 28.8% | 70.5% | – | – | – | – | – | – | – | –
